According to article PMC7415805 (Theranostics, 2020):

What was measured:
TSPO A147T mutant (LAB) = details: previous reports; cited from earlier work
TSPO [1] = details: Ki of ligands for TSPO; cited from earlier work
[2] = tested on: intracranial LPS-induced neuroinflammation; assay: Anti-inflammatory treatment in intracranial LPS neuroinflammation model, read by [18F]CB251 PET and BLI; format: in vivo, mouse; details: CDDO-Me i.p. once daily for 3 days after LPS vs LPS-injected mice
Procedure: Luciferase-expressing cells were isolated from the dissected spleens of transgenic C57BL/6luc^Tg mice and centrifuged at 1300 rpm for 5 min at 4 °C). The red blood cell lysis buffer (1 mL/spleen, Sigma-Aldrich) was added to the cell pellet, and the mixture was incubated at room temperature for 3 min to remove red cells. After a double volume of RPMI medium was added to the cells, 2-3 volumes of red blood cell lysis buffer were added until complete lysis of red blood cells. Subsequently, the cells were re-suspended, ensuring a suspension of single cells, and filtered through a cell strainer (40 µm nylon, Falcon, Oneonta, NY). […] Bioluminescence intensity was measured by an IVIS 100 system (Perkin Elmer, Waltham, MA). […]
(§1) PET images were reconstructed using 3D OSEM algorithm (12 subsets and 3 iterations). […] PET and MR images were reconstructed and analyzed by the AMIDE program (ver 0.9.0, http://amide.sourceforge.net). The ratio of maximum PET SUV in the right and left striatum was then calculated.
An in vivo IVIS 100 bioluminescence/optical imaging system (Xenogen, Alameda, CA, USA) was used to follow luciferase-expressing peripheral immune cells. […] The bioluminescent signal was acquired and analyzed by Living Image ver.2.50.2 software (Xenogen). […]

[3] = tested on: MDA-MB-231 cells transfected with pCMV-shTSPO/eGFP; assay: [18F]CB251 uptake in cells with reduced TSPO expression; format: cell-based, human; details: MDA-MB-231 cells with reduced TSPO expression vs control
Procedure: (§2) For overexpression of the TSPO protein, the 293FT cell line was transiently transfected with vectors (pCMV-eGFP/TSPO) (AddGene, Cambridge, MA, USA) harboring the eGFP and TSPO coding sequences. MDA-MB-231, which highly expresses TSPO, was used for the reduction of TSPO expression by shRNA (pCMV-eGFP/shTSPO; AddGene). Each vector used for various levels of TSPO expression was transfected by Lipofectamine 2000 (Invitrogen, Waltham, MA, USA) at a total concentration of 2.5 µg/mL. Fluorescent images were acquired by a confocal laser-scanning microscope (Leica TCS SP8; Wetzlar, Hesse, Germany), and Western blotting was performed for verification.
(§3) Cells were seeded in 6-well plates (Sigma-Aldrich) until they reached approximately 80% confluency. Before the uptake experiments, the cells were preincubated with glucose-free RPMI-1640 medium (Gibco) for 4 h. The cells were then trypsinized (Gibco), counted, and 1×10^5 cells transferred into a 5 mL test tube containing warmed Hank's balanced salt solution (HBSS, Sigma-Aldrich) with 0.5% (w/v) bovine serum albumin (Sigma-Aldrich). […] Cell lysates were collected, and radioactivity was measured by a Cobra II gamma counter (Canberra Packard; Vaughan, Ontario, Canada). Radioactivity was normalized according to the amount of total protein at the time of assay. Total protein levels were quantified by the BCA protein assay kit (Pierce, Rockford, IL, USA). […]

[4] = tested on: 293FT cells expressing polymorphic TSPO; assay: In vitro cellular uptake of radioactive ligands in cells expressing polymorphic TSPO; format: cell-based, human; details: 293FT cells expressing TSPO WT or Mut-A147T; 1 h at 37°C
Procedure: Cells were seeded in 6-well plates (Sigma-Aldrich) until they reached approximately 80% confluency. […] The cells were then trypsinized (Gibco), counted, and 1×10^5 cells transferred into a 5 mL test tube containing warmed Hank's balanced salt solution (HBSS, Sigma-Aldrich) with 0.5% (w/v) bovine serum albumin (Sigma-Aldrich). […] The cells were then washed 3 times with cold HBSS and lysed for 5 min in 200 μL of 1% sodium dodecyl sulfate (SDS, Sigma-Aldrich). Cell lysates were collected, and radioactivity was measured by a Cobra II gamma counter (Canberra Packard; Vaughan, Ontario, Canada). Radioactivity was normalized according to the amount of total protein at the time of assay. Total protein levels were quantified by the BCA protein assay kit (Pierce, Rockford, IL, USA). All experiments were performed in triplicate.

[5] = tested on: 293FT cells expressing polymorphic TSPOs; assay: PET scans of 293FT cells expressing polymorphic TSPOs (phantoms and mice bearing the cells); parameters: species or system human; details: phantoms and mice bearing 293FT cells with polymorphic TSPOs
mouse splenocytes = assay: [18F]CB251 uptake in activated splenocytes; format: cell-based; details: mouse splenocytes activated with LPS and IFN-γ for 24 h vs non-activated
Procedure: (§4) RAW264.7, a mouse macrophage cell line and mouse splenocytes were used to evaluate TSPO expression. LPS (50 ng/mL, Sigma-Aldrich, St.Louis, MO, USA) and IFN-γ (20 ng/mL, Sigma-Aldrich) were used to activate immune cells. The 293FT (Invitrogen, Carlsbad, CA, USA) and MDA-MB-231 (ATCC, Manassas, VA, USA) cell lines were used for various TSPO expression levels. Cells were maintained in complete DMEM (for Raw264.7 and MDA-MB-231) or MEM (for 293FT) with 10% FBS and 1% antibiotics (penicillin-streptomycin). All media and reagents for cell culture, including FBS and antibiotics were purchased from Gibco (Grand Island, NY, USA).
as §3

RAW264.7 = assay: [18F]CB251 uptake in activated macrophage cell line; format: cell-based, mouse; details: RAW264.7 activated with LPS and IFN-γ for 24 h vs non-activated
Procedure: as §4, §3

[6] = tested on: 293FT cells transfected with pCMV-TSPO/eGFP; assay: [18F]CB251 uptake in TSPO-overexpressing cells; format: cell-based, human; details: TSPO-overexpressing 293FT cells vs control
Procedure: as §2, §3

TSPO [7] = target: T1, TSPO (Mus musculus, UniProt P50637); assay: [18F]CB251 PET/MR in intracranial LPS neuroinflammation model; format: in vivo; details: saline-injected mice, day 4; p=0.012
T1 construct: from tissue; host or cells: brain (striatum) of living C57BL/6 mice after intracranial LPS or saline
Procedure: C57BL/6 mice (male, 6 weeks old) were used for generating the intracranial inflammation model. LPS (Sigma-Aldrich, 5 µg/2 µL dissolved in saline) was used to induce local inflammation in the right striatum of the mouse brain (anteroposterior, +1.8; mediolateral, +2.0; dorsoventral, -3.0) via intracranial injection by a robotic stereotaxic device (Stoelting, Wood Dale, IL) equipped with a Hamilton syringe at a rate of 0.25 µL/min [52]-[54]. Saline was injected as a control. The mouse was placed in the isoflurane induction box (5% isoflurane, 95% air, 250 cc/min) until the animal was fully anesthetized, and the isoflurane percentage was adjusted to 2% at a flow rate of 250 cc/min during the process.
To visualize neuroinflammation, PET/MR scans were acquired by a simultaneous small animal PET insert (SimPET, Brightonic imaging, Seoul, Korea) combined with an M7 1.0 T MRI system (Aspect Imaging, Jerusalem, Israel). […] Mice were anesthetized with 1.5% isoflurane during imaging.
as §1

T1 sequence (P50637 whole entry): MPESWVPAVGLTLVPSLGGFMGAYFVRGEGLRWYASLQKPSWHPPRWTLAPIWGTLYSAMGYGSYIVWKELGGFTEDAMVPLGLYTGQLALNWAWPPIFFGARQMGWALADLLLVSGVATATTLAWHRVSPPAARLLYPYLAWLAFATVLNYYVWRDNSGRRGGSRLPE

In the case of `COc1ccccc1CN(C(C)=O)c1cnccc1Oc1ccccc1` [PBR28, reference compound], the “ratio of IC50 LAB/HAB” value (TSPO A147T mutant (LAB)) is given as 55 and the Ki (TSPO [1]) is given as 6.1 nM.
With `COC(=O)[C@]12CCC(C)(C)C[C@H]1[C@H]1C(=O)C=C3[C@@]4(C)C=C(C#N)C(=O)C(C)(C)[C@@H]4CC[C@@]3(C)[C@]1(C)CC2` [CDDO-Me, 2-Cyano-3,12-dioxo-oleana-1,9(11)-dien-28-oic acid methyl ester] the “BLI signal ratio (total photon flux, right/left striatum)” value ([2]; p=0.0025) was “decreased dramatically” and the “[18F]CB251 uptake ratio (SUVmax, right/left striatum)” value ([2]; p=0.0323) was “significantly decreased”.
For `CCCN(CCC)C(=O)Cc1c(-c2ccc(OCCF)cc2)nc2c(Cl)cc(Cl)cn12` [CB251], the “[18F]CB251 uptake” value [3] was “decreased”, the “sensitivity of cellular uptake to TSPO polymorphism” value [4] was “much less sensitive to TSPO polymorphism” and the “sensitivity of PET signal to TSPO polymorphism” value [5] was “less sensitive to TSPO polymorphism”. The “[18F]CB251 uptake” value (mouse splenocytes) was “increased”, the “[18F]CB251 uptake” value (RAW264.7) was “increased” and the “[18F]CB251 uptake” value [6] was “increased”. For the same compound, the “[18F]CB251 PET signal, saline-injected right striatum vs non-injected left striatum” value (TSPO [7]) was “increased slightly”.
In the case of `CCC(C)N(C)C(=O)c1cc2ccccc2c(-c2ccccc2Cl)n1` (stereo not drawn) [PK11195, reference compound], the “sensitivity of cellular uptake to TSPO polymorphism” value [4] is reported as “much less sensitive to TSPO polymorphism”.
